{
  "source": "patent US5585367A",
  "about": "(priority 1990, dated 1996)",
  "key": {"[1]": {"system": "HIV-1", "type": "cell-based"}, "[2]": {"system": "HIV-1", "type": "cell-based", "remark": "listed apart in the source"}, "[3]": {"system": "genes \"GAG\", \"LTR\" and \"ENV\" of the HIV-1 provirus", "experiment": "Integration of viral genome into chromosomic DNA of Supt-1 cells (PCR)", "type": "cell-based", "conditions": "35 μgr/ml; virus incubated for 15 minutes", "experimental": "By means of a genetic amplification through a thermostable polymerase, the presence of genes \"GAG\", \"LTR\" and \"ENV\" of the HIV-1 provirus is evidenced. This method is called P.C.R. Polymerase chain Reaction) (Chin-Yih Ou et al., Sciences 239, 295-297, 1988).\nSaid method is applied for detecting HIV-1 provirus in the genome of Supt-1 cells inoculated with HIV-1 virus incubated with […] (dilution 1/100), as described in Example 8\nAmplified oligonucleotides, UV visible by means of ethidium bromide appear only in the tubes corresponding to an inoculation with HIV-1 viruses which were not treated with the active substance.\nOne proceeds as in Example 11(c). The search of genes \"GAG\", \"LTR\" and \"ENV\" has been made in cellular cultures inoculated with a virus incubated for 15 minutes with the active substance. This search is appeared as being negative, and thus it can be concluded that 1.1'-azobisformamide at the dosage of 35 μgr/ml protects the cells against infection by HIV-1.\nExamples 10c and 11c disclose a more accurate method than the ELISA test for examining whether the inoculated cells contain HIV-1 at the end of the assay, i.e., the PCR-Method."}, "[4]": {"experiment": "Treatment of three sound volunteers for 30 days", "type": "in vivo, human", "conditions": "1500 mgr a day (three portions of 500 mgr)", "experimental": "Three sound volunteers were treated for 30 days with 1500 mgr a day of a azobisformamide in three portions of 500 mgr."}, "[5]": {"system": "Vesicular Stomatitis Virus (VSV)", "experiment": "microbe, parasite or virus in culture", "type": "cell-based", "parameters": "TCID 50: unit not given here", "conditions": "for log reduction at 50 µg/mL / log reduction at 100 µg/mL / log reduction at 150 µg/mL / log reduction at 250 µg/mL: Vesicular stomatitis virus, Vero"}, "[6]": {"system": "HIV-1 LAI/IIIB", "experiment": "Inhibition of HIV replication in PBL's", "type": "cell-based", "conditions": "PBLs; 0.4 μgr/ml to 250.0 μgr/ml"}, "[7]": {"system": "HIV-1 LAI/IIIB", "experiment": "Inhibition of HIV replication in MT4 cells", "type": "cell-based"}, "[8]": {"system": "HIV-2 ROD", "experiment": "Inhibition of HIV replication in MT4 cells", "type": "cell-based", "conditions": "0.4 μgr/ml to 250.0 μgr/ml"}, "[9]": {"system": "HIV-1 Wild A", "experiment": "Inhibition of HIV replication in PBL's", "type": "cell-based", "conditions": "Human immunodeficiency virus 1"}, "[10]": {"system": "HIV-1 Wild B", "experiment": "Inhibition of HIV replication in PBL's", "type": "cell-based", "conditions": "Human immunodeficiency virus 1"}, "[11]": {"system": "HIV-1 Wild C", "experiment": "Inhibition of HIV replication in PBL's", "type": "cell-based", "conditions": "Human immunodeficiency virus 1"}, "[12]": {"system": "HIV-1 Wild D", "experiment": "Inhibition of HIV replication in PBL's", "type": "cell-based", "conditions": "Human immunodeficiency virus 1"}, "[13]": {"system": "HIV-1 Wild E", "experiment": "Inhibition of HIV replication in PBL's", "type": "cell-based", "conditions": "Human immunodeficiency virus 1"}, "[14]": {"system": "HIV-1 Wild F", "experiment": "Inhibition of HIV replication in PBL's", "type": "cell-based", "conditions": "Human immunodeficiency virus 1, Wild F (resistant to AZT, syncytium inducer)"}, "[15]": {"system": "HIV-1 Wild G", "experiment": "Inhibition of HIV replication in PBL's", "type": "cell-based", "conditions": "Human immunodeficiency virus 1, Wild G (resistant to AZT, syncytium inducer)"}, "[16]": {"system": "wild HIV-1 strains", "experiment": "Inhibition of HIV replication, wild HIV-1 strains", "type": "cell-based", "conditions": "for IC90: Human immunodeficiency virus 1, wild strains from patients"}, "[17]": {"system": "Tat", "experiment": "Tat antagonism"}, "[18]": {"system": "HIV", "experiment": "In-vitro combination with didanosine", "type": "cell-based", "conditions": "at and below the IC50"}, "[19]": {"experiment": "Tolerability and effectiveness of single doses", "type": "in vivo, human", "conditions": "single doses of between 7 and 140 mg per kg body weight"}, "[20]": {"system": "VERO cells"}, "[21]": {"conditions": "single dose of 3 g, one volunteer"}, "[22]": {"conditions": "oral"}},
  "note": "“And” between values parts separate entries of the source, which are not always exact repeats. Identical values can stand only once. Like-named read-outs stand apart in the source and are kept apart here.",
  "data": [
    {"compound": "NC(=O)N=NC(N)=O", "note": "[ADA, 1,1'-azobisformamide]", "values": [
      {"measurement": "protection of cellular cultures against the infectious power of HIV-1", "setting": "[1]", "result": "protects the cellular cultures against the infectious power of HIV-1"},
      {"measurement": "cytopathogenic effect", "setting": "[2]", "result": "No cytopathogenic effect has been observed"},
      {"measurement": "search of genes \"GAG\", \"LTR\" and \"ENV\"", "setting": "[3]", "result": "negative"},
      {"measurement": "hematological parameters", "setting": "[4]", "result": "remained perfectly normal"},
      {"measurement": "secondary effect", "setting": "[4]", "result": "No secondary effect was reported"},
      {"measurement": "TCID 50", "setting": "[5]", "result": "6.90 and 6.73 and 6.55 and 4.28 and 3.75 and 3.58 and 3.93"},
      {"measurement": "log reductions", "setting": "[5]", "result": "> 2.0"},
      {"measurement": "log reduction at 50 µg/mL", "setting": "[5]; 10 min, read-out: Log Red", "result": 1.05},
      {"measurement": "log reduction at 100 µg/mL", "setting": "[5]; 10 min, read-out: Log Red", "result": 1.22},
      {"measurement": "log reduction at 150 µg/mL", "setting": "[5]; 10 min, read-out: Log Red", "result": 1.22},
      {"measurement": "log reduction at 250 µg/mL", "setting": "[5]; 10 min, read-out: Log Red", "result": 1.4},
      {"measurement": "log reduction at 50 µg/mL", "setting": "[5]; 1 h, read-out: Log Red", "result": 1.4},
      {"measurement": "log reduction at 100 µg/mL", "setting": "[5]; 1 h, read-out: Log Red", "result": 1.22},
      {"measurement": "log reduction at 150 µg/mL", "setting": "[5]; 1 h, read-out: Log Red", "result": 1.4},
      {"measurement": "log reduction at 250 µg/mL", "setting": "[5]; 1 h, read-out: Log Red", "result": 1.4},
      {"measurement": "log reduction at 50 µg/mL", "setting": "[5]; 20 h, read-out: Log Red", "result": 1.75},
      {"measurement": "log reduction at 100 µg/mL", "setting": "[5]; 20 h, read-out: Log Red", "result": 2.28},
      {"measurement": "log reduction at 150 µg/mL", "setting": "[5]; 20 h, read-out: Log Red", "result": 2.45},
      {"measurement": "log reduction at 250 µg/mL", "setting": "[5]; 20 h, read-out: Log Red", "result": 2.1},
      {"measurement": "log reduction at 150 µg/mL", "setting": "[5]; read-out: log reduction (strongest effect)", "result": 2.28},
      {"measurement": "inhibition of the replication of HIV-1 (strain IIIB(LAI))", "setting": "[6]", "result": "inhibit the replication"},
      {"measurement": "IC50", "setting": "[7]; Human immunodeficiency virus 1, IIIB, MT4, MT4 cells infected with HIV-1 strain LAI/IIIB, read-out: lowest observed IC50", "result": 1.6, "unit": "µg/mL"},
      {"measurement": "inhibition of the replication of HIV-1", "setting": "[7]; MT4 cells, 0.4 μgr/ml to 250.0 μgr/ml", "result": "inhibits the replication"},
      {"measurement": "inhibition of the replication of HIV-2 (ROD)", "setting": "[8]", "result": "inhibits the replication"},
      {"measurement": "IC50", "setting": "[9]", "result": 8.9, "unit": "µg/mL"},
      {"measurement": "IC90", "setting": "[9]", "result": 17.4, "unit": "µg/mL"},
      {"measurement": "IC50", "setting": "[10]", "result": 11.6, "unit": "µg/mL"},
      {"measurement": "IC90", "setting": "[10]", "result": 18.6, "unit": "µg/mL"},
      {"measurement": "IC50", "setting": "[11]", "result": 11.1, "unit": "µg/mL"},
      {"measurement": "IC90", "setting": "[11]", "result": 18, "unit": "µg/mL"},
      {"measurement": "IC50", "setting": "[12]", "result": 10, "unit": "µg/mL"},
      {"measurement": "IC90", "setting": "[12]", "result": 18.1, "unit": "µg/mL"},
      {"measurement": "IC50", "setting": "[13]", "result": 8.3, "unit": "µg/mL"},
      {"measurement": "IC90", "setting": "[13]", "result": 18.4, "unit": "µg/mL"},
      {"measurement": "IC50", "setting": "[14]", "result": 6.4, "unit": "µg/mL"},
      {"measurement": "IC90", "setting": "[14]", "result": 19, "unit": "µg/mL"},
      {"measurement": "IC50", "setting": "[15]", "result": 11.2, "unit": "µg/mL"},
      {"measurement": "IC90", "setting": "[15]", "result": 21.2, "unit": "µg/mL"},
      {"measurement": "IC90", "setting": "[16]; read-out: IC90 range", "result": "17.4 to 21.2", "unit": "µg/mL"},
      {"measurement": "IC90", "setting": "[16]; read-out: median IC90 (complete inhibition, ≥90% inhibition)", "result": 18, "unit": "µg/mL"},
      {"measurement": "inhibition of the replication of wild HIV-1 strains", "setting": "[16]; PBLs, including strains phenotypically resistant to AZT, 0.4 to 250.0 μgr/ml", "result": "inhibit the replication"},
      {"measurement": "Tat antagonism", "setting": "[17]", "result": "not a Tat-antagonist"},
      {"measurement": "combination with didanosine", "setting": "[18]", "result": "additive effects"},
      {"measurement": "tolerability and effectiveness", "setting": "[19]", "result": "tolerable and effective"},
      {"measurement": "toxicity against VERO cells", "setting": "[20]", "result": "No toxicity against VERO cells was observed"},
      {"measurement": "absorption and excretion", "setting": "[21]", "result": "can be absorbed and even excreted in its active form"},
      {"measurement": "absorption", "setting": "[22]", "result": "absorbed via the gastro-intestinal route"},
      {"measurement": "distribution", "setting": "[22]", "result": "distributes readily to intracellular compartments"}
    ]}
  ]
}
